From publication PMC9791335 (Heliyon, 2022)

Target: lysine-specific demethylase 1 (LSD1) (Homo sapiens, UniProt O60341)
Test: HRP-coupled fluorescence
Assay type: biochemical

COc1cc(CNC(=O)CCCCCCC(C)C)ccc1O [DHC, dihydrocapsaicin]
% inhibition at 10 μM: 76.5
